Consider one compound from patent publication US20260224613A1, “Use Of Inorganic Nitrate For Preventing Restenosis And/Or Device Thrombosis” (Queen Mary University of London, priority 2023, published 2026).

In experiment [1] the test system is Human Coronary Arterial Endothelial Cells (HCAEC). The conditions noted are these: NaNO2 3 μM; hypoxia 0.1% O2 24 h, re-oxygenation 8, 24 and 48 h; FIG. 2. Here is the method:
(§1) FIG. 2—Effects of NaNO2 on cell proliferation of Human Coronary Arterial Endothelial Cells (HCAEC) and Human Coronary Arterial Smooth Muscle Cells (HCSMC) exposed to Ischaemia/Reperfusion injury. Cell Count of HCAEC and HCASMC respectively under hypoxia (0.1% O2, 24 h) and re-oxygenation (normoxia, 8, 24 and 48 h post ischaemia)) in the absence and presence of NaNO2 3 μM. n=7/group for HCAEC and n=5/group for HCASMC. Results are expressed as % changes of the respective matched normoxia controls. Data represent mean±SEM of the number of independent experiments performed as indicated above. Statistical significance determined using two-way ANOVA followed by post-test comparing response at each timepoint between treatments determined using Sidak's multiple comparison test.

In experiment [2] the test system is Human Coronary Arterial Smooth Muscle Cells (HCSMC). Conditions: NaNO2 3 μM; hypoxia 0.1% O2 24 h, re-oxygenation 8, 24 and 48 h; FIG. 2. Here is the method:
as §1

In the case of `O=N[O-].[Na+]` [nitrite, NaNO2], the “endothelial cell growth following an ischaemia-reperfusion insult” value in experiment [1] was “improves”. Also, the “growth of vascular smooth muscle cells following an ischaemia-reperfusion insult” value in experiment [2] was “suppressing”.
